Assay results from patent US8741859B2, “Fungicide composition for agriculture and horticulture and method for preventing plant diseases” (Ishihara Sangyo Kaisha, Ltd, priority 2008, dated 2014).

Legend:
Pythium graminicola = assay: Inhibition test of mycelial growth against turf Pythium blight (Pythium graminicola); type: cell-based
Description: (§1) The strain to use for a test was precultured on a PSA plate for two days at 20° C. Then, the peripheral portion of the grown mycelia was cut out with a cork borer (4 mm in diameter) to put on PDA plate which was prepared to contain an active ingredient at a predetermined concentration by diluting. After culturing for two days at 20° C., a diameter of the mycelial colony was measured to obtain an inhibition rate of mycelial growth.
(§2) In addition, a theoretical value of the inhibition rate was calculated using Colby's formula and listed in parentheses of Table 1.
Inhibition Test of Mycelial Growth Against Turf Pythium Blight (Pythium graminicola)
The inhibition rate of mycelial growth was obtained by measuring mycelial growth in the same manner as Test Example 1. In addition, the mean mycelial growth of non-treated group was 46.5 mm.

Pythium spinosum = assay: Inhibition test of mycelial growth against rice seedling blight (Pythium spinosum); type: cell-based; conditions: Globisporangium spinosum, 48 h, PDA plate, 2 days, 20° C., read-out: Inhibition Rate of Mycelial Growth against Pythium spinosum (%)
Description: Inhibition Test of Mycelial Growth Against Rice Seedling Blight (Pythium spinosum)
as §1, §2

For Cc1ccc(-c2c(Cl)nc(C#N)n2S(=O)(=O)N(C)C)cc1 [Cyazofamid, 4-chloro-2-cyano-1-dimethylsulfamoyl-5-(4-methylphenyl)imidazole], the “Inhibition Rate of Mycelial Growth (%)” value (Pythium graminicola; Cyazofamid 1 ppm alone (agent 0 ppm)) was 48%, the “Inhibition Rate of Mycelial Growth (%)” value (Pythium graminicola; Cyazofamid 10 ppm alone (agent 0 ppm)) was 47% and the “Inhibition Rate of Mycelial Growth (%)” value (Pythium graminicola; Cyazofamid 100 ppm alone (agent 0 ppm)) was 68%. It also gave an inhibition at 1 ppm (Pythium spinosum; Cyazofamid 1.0 ppm alone (polyoxin 0 ppm)) of 68% and an inhibition at 10 ppm (Pythium spinosum; Cyazofamid 10.0 ppm alone (polyoxin 0 ppm)) of 54%.
